# Assay: in vitro dissolution test (concentration enhancement) in PBS, microcentrifuge method
# Type: physicochemical
# Settings: PBS pH 6.5, 37° C.
# Description: For this test, samples containing 7.2 mg of Example 1 were added to microcentrifuge tubes, in duplicate. The tubes were placed in a 37° C. temperature-controlled chamber, and 1.8 mL PBS at pH 6.5 and 290 mOsm/kg was added. The samples were quickly mixed using a vortex mixer for about 60 seconds. The samples were centrifuged at 13,000 G at 37° C. for 1 minute. […] The contents of the tubes were mixed on the vortex mixer and allowed to stand undisturbed at 37° C. until the next sample was taken. […] Control 1 and crystalline Drug 1 were tested using the same procedure. The concentration of drug obtained in these samples were used to determine the values of the maximum concentration of drug in the first ninety minutes (Cmax90) and the area under the curve of drug concentration versus time in the first ninety minutes (AUC90). […] The physical properties of the dispersions of Example 3, Control C2 and crystalline Drug 2 alone were determined as Example 1 with the following exceptions. […] Samples were analyzed by HPLC, with absorbance at 297 nm (Hewlett Packard 1100 HPLC, Zorbax SB C18 column, 35% acetonitrile/65% H2O).
# [1] = Drug 2, 2000 μg/mL if all of the drug had dissolved
"AUC90 (Drug 1, area under drug concentration versus time curve in the first ninety minutes)","Cmax90 (Drug 1, maximum concentration of drug in the first ninety minutes)","Drug 1 Concentration (supernatant after centrifugation, time 0 min)",Drug 1 AUC (time 0 min),Drug 1 AUC (time 4 min),Drug 1 Concentration (time 4 min),Drug 1 AUC (time 10 min),Drug 1 Concentration (time 10 min),Drug 1 AUC (time 20 min),Drug 1 Concentration (time 20 min),Drug 1 AUC (time 40 min),Drug 1 Concentration (time 40 min),Drug 1 AUC (time 90 min),Drug 1 Concentration (time 90 min),Drug 1 AUC (time 1200 min),Drug 1 Concentration (time 1200 min),AUC90 [1],Cmax90 [1],SMILES
<88 µg·min/mL,<1 µg/mL,0 µg/mL,0 min-μg/ml,<2 min-μg/ml,<1 µg/mL,<8 min-μg/ml,<1 µg/mL,<18 min-μg/ml,<1 µg/mL,<38 min-μg/ml,<1 µg/mL,<88 min-μg/ml,<1 µg/mL,"<1,200 min-μg/ml",<1 µg/mL,,,"CCOC(=O)N1c2ccc(C(F)(F)F)cc2C(N(Cc2cc(C(F)(F)F)cc(C(F)(F)F)c2)C(=O)OC)CC1CC (stereo not drawn) [Crystalline Drug 1, 4-[(3,5-bis-trifluoromethyl-benzyl)-methoxycarbonyl-amino]-2-ethyl-6-trifluoromethyl-3,4-dihydro-2H-quinoline-1-carboxylic acid ethyl ester]"
,,,,,,,,,,,,,,,,"12,800 min*μg/mL",149 µg/mL,"O=C(N[C@@H](Cc1ccccc1)[C@@H](O)C(=O)N1C[C@@H](O)[C@@H](O)C1)c1cc2cc(Cl)ccc2[nH]1 [Crystalline Drug 2, 5-chloro-1H-indole-2-carboxylic acid [(1S)-benzyl-(2R)-hydroxy-3-((3R,4S)-dihydroxy-pyrrolidin-1-yl-)-3-oxypropyl]amide]"

# — US6763607B2, “Method for making homogeneous spray-dried solid amorphous drug dispersions utilizing modified spray-drying apparatus” (Pfizer Inc., priority 2002, dated 2004)
